The structures appear in SMILES notation.

The values that follow come from publication PMC7031697, “Mechanism of Activation of AMPK by Cordycepin” (Cell Chemical Biology, 2020).

Assay [1] concerns AMPK. Description: Phosphorylation of AMPK, ACC and Raptor in HepG2 cells (western blotting). The assay is classed as cell-based, human. As to conditions: cordycepin at 100 μM and above, 1 h. The protocol:
SDS-PAGE for AMPK and Raptor was performed using precast Bis-Tris 4–12% gradient polyacrylamide gels in the MOPS buffer system (Invitrogen). SDS-PAGE for ACC was performed using precast Tris-Acetate 3–8% gradient polyacrylamide gels in the Tris-Acetate buffer system (Invitrogen). Proteins were transferred to nitrocellulose membranes using the iBlot2 system (Invitrogen). Membranes were blocked for 1 hr in Li-Cor Odyssey blocking buffer. The membranes were probed with appropriate antibody (0.1–1 μg/ml) in Li-Cor Odyssey blocking buffer, except where the blotting enhancement system was used (Thermo Scientific; as per manufacturers’ instructions). Detection was performed using secondary antibody (1 μg/ml) coupled to IR 680 or IR 800 dye, or IR-streptavidin 800 dye, and the membranes were scanned using the Li-Cor Odyssey IR imager. Protein concentrations were determined by Coomassie Blue binding with bovine serum albumin as standard ([Bradford, 1976]).
In general terms: Immunoblotting shows a protein as a band on a membrane.

For assay [2], the system named is AMPK. As to the kind of experiment: AMPK activity in anti-AMPK-α immunoprecipitates from HepG2 cells treated with cordycepin. Type of assay: cell-based, human. The protocol:
(§1) HepG2 cells ([…]) were cultured in Minimum Essential Medium (MEM) supplemented with 10% (v/v) FBS, 1% (v/v) non-essential amino acids and 1% (v/v) penicillin/streptomycin. Transient transfection of DNAs encoding FLAG-tagged AMPK-γ2 or an R531G mutant of AMPK-γ2 were carried out 36-48 hr prior to experiments using Fugene 6 according to manufacturers’ instructions. U2OS cells ([…]) were cultured in Dulbecco’s Modified Eagle’s Medium (DMEM) supplemented with 10% (v/v) FBS and 1% (v/v) penicillin/streptomycin.
(§2) Endogenous AMPK in crude cell lysates was first immunoprecipitated using an equal mixture of anti-α1 and –α2 antibodies (150 μg protein) by incubation at 4°C for 2 hr on a roller mixer. After extensive washing, the immunoprecipitates were assayed for AMPK activity (50 μg per assay, total assay volume 50 μl) using the AMARA peptide (200 μM) as substrate in the presence of 200 μM AMP, 5 mM MgCl2 and 200 μM [γ-^32P]ATP ([Fyffe et al., 2018]).

Assay [3] has as its target T1, AMPK complexes containing WT γ2 (Homo sapiens, UniProt Q9UGJ0).
T1 construct: expressed in transfected cells; host or cells: HepG2 (transient, Fugene 6)
Description: AMPK activity in anti-FLAG immunoprecipitates, HepG2 cells with FLAG-tagged WT AMPK-γ2. Type of assay: cell-based. As to conditions: 1 h, 300 μM cordycepin, 10 mM phenformin or 300 μM A-769662. Here is the method:
as §1
(§3) HepG2 cells were transiently transfected with DNAs encoding FLAG-tagged wild type AMPK-γ2 or the R531G mutant, using Fugene 6 according to the manufacturers’ instructions. After transfection for 48 hr, cells were treated with various agents as described, and cell lysates prepared ([Hawley et al., 2018]). FLAG-tagged AMPK was then immunoprecipitated from 150 μg total protein by incubation at 4°C for 2 hr on a roller mixer with 9 μl of EZview Red anti-FLAG M2 affinity gel. After extensive washing, the immunoprecipitates were assayed for AMPK activity (50 μg per assay in a total volume of 50 μl) using the AMARA peptide (200 μM) as substrate in the presence of 200 μM AMP, 5 mM MgCl2 and 200 μM γ-^32P-ATP as described previously ([Fyffe et al., 2018]).

The subject of assay [4] is HepG2 cells. Description: Cellular content of adenine and cordycepin nucleotides by LC-MS. The assay is classed as cell-based, human. As to conditions: 1 h. Here is the method: After treatment, cells for nucleotide analysis were lysed in 70% perchloric acid and the acid extracted as described previously ([Hawley et al., 2010]). The levels of AMP, ADP, ATP, CoMP, CoDP and CoTP were measured using a TSQ Quantiva (with an ion Max NG source) interfaced with an Ultimate 3000 Liquid Chromatography system (ThermoScientific). Separation of all compounds was achieved using a porous graphitic carbon column (HyperCarb 30x1 mm ID […]; Part No: C-35003-031030, Thermo-Scientific) as described previously ([Ross et al., 2017]) with some modifications. Mobile phase buffer A consisted of 0.3% (v/v) formic acid adjusted to pH 9 with ammonia prior to a 1:10 dilution. Mobile phase buffer B was 80% (v/v) acetonitrile. The column was maintained at a controlled temperature of 40°C and equilibrated with 10% buffer B for 5 min at a constant flow rate of 0.05 mL/min. Aliquots of 1μL of each sample were loaded onto the column and compounds eluted with a linear gradient from 10% buffer B to 12% buffer B within 1 min, then 12% B to 100% B within 2 min; the column was then washed for 4 min with 100% Buffer B. Eluents were sprayed into the TSQ Quantiva using Ion Max NG ion source with ion transfer tube temperature at 350°C and vaporizer temperature 30°C. The TSQ Quantiva was run in negative mode with a spray voltage of 3500, sheath gas 40, aux gas 20 and sweep gas 2. Levels of ATP, ADP and AMP were measured using multiple reactions monitoring mode (MRM) with transitions described previously ([Ross et al., 2017]). For CoMP, CoDP and CoTP, optimised collision energies and radio frequencies were determined by infusing the pure compounds. Two transitions were used to monitor each of the three compounds, CoMP (330.22>134.01, 330.22>195.11), CoDP (410>256.67, 410>392.0) and CoTP (490>158.89, 490.11>472.11).

For assay [5], the system named is HepG2 cells. As to the kind of experiment: MTT assay for cell proliferation. Type of assay: cell-based, human. The protocol:
After treatment for the specified time, the effect of cordycepin on cell proliferation was determined using the MTT assay kit (Abcam, ab211091) as per manufacturers’ instructions.
(In general: Formazan colour is commonly taken as a measure of viable cells.)

In assay [6] the target is T2, AMPK complexes containing the R531G mutant (Homo sapiens, UniProt Q9UGJ0, R531G).
T2 construct: expressed in transfected cells; host or cells: HepG2 (transient, Fugene 6)
T2 sequence (Q9UGJ0 whole entry R531G, one chain of several): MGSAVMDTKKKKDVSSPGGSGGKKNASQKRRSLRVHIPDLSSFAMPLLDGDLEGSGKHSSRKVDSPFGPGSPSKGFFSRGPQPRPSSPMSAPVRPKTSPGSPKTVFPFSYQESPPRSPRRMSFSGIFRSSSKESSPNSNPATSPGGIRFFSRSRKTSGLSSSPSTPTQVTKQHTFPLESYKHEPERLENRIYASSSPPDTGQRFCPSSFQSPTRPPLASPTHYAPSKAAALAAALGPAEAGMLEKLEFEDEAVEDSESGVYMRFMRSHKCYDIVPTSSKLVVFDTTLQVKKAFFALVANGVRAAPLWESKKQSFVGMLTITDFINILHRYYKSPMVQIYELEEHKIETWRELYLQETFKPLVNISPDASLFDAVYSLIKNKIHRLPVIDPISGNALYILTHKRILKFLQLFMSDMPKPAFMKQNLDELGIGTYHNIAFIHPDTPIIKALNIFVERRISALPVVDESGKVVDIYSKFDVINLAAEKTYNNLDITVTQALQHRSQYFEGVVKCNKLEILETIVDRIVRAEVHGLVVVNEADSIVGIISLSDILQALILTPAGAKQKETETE
Description: AMPK activity in anti-FLAG immunoprecipitates, HepG2 cells with FLAG-tagged AMPK-γ2 R531G mutant. Type of assay: cell-based. The following applies: 1 h, 300 μM cordycepin, 10 mM phenformin or 300 μM A-769662. The protocol:
as §1, §3

In assay [7] the test system is AMPK. Description: AMPK activation in HepG2 cells in medium without serum but with 0.02% BSA. The following applies: medium with 0.02% BSA vs 10% serum. The assay is classed as cell-based, human. The protocol:
as §2

Assay [8] relates to AMPK. More on the design: method as in Guo et al., 2010. As to conditions: HepG2 cells, medium without serum but with 0.02% (w/v) BSA; ref Guo et al., 2010; cited from earlier work.

T1 sequence (Q9UGJ0 whole entry, one chain of several): as the sequence (Q9UGJ0 whole entry R531G, one chain of several) above, with G531R counted along it

For the molecule `Nc1ncnc2c1ncn2[C@@H]1O[C@H](CO)C[C@H]1O` [cordycepin, 3′-deoxyadenosine], the “phosphorylation of Thr172 on AMPK, ACC1 Ser80 and Raptor Ser792” value with AMPK [1] is “increased”. Besides, the AMPK activation entry in the assay on AMPK [2] (30 μM cordycepin, 1 h, medium with serum) is listed as “No activation was evident”. The “time of return of AMPK phosphorylation and activation to baseline” value in the assay on AMPK [2] (100 μM cordycepin, time course) is reported as no more than 4 h. Moreover, in the assay on AMPK [2] (100 μM cordycepin, time course, at 1 h), the “peak increase in phosphorylation and activation of AMPK” value is “≈ 2 fold”. Moreover, the EC50 (as a rule, the concentration needed to bring the measured effect to its halfway point) in the assay with AMPK [2] (cordycepin 1 h, medium with serum, read-out: half-maximal effect (EC50) on AMPK kinase activity) worked out at 310 ± 60 µM. The “kinase activity of AMPK, maximum increase” value in the assay on AMPK [2] (cordycepin 1 h, medium with serum, ±SEM) stood at 7 ± 1 fold. Also, in assay [3], the “activation of AMPK complexes containing WT γ2” value is “activated”. The “AMPK activation and CoMP formation” value in the assay on HepG2 cells [4] (30 μM cordycepin or below) is reported as “neither AMPK activation nor CoMP formation was observed”. Further, in the assay with HepG2 cells [4] (1 mM cordycepin), the “decrease in cellular ADP content” value was found to be 14 fold, the “decrease in cellular AMP content” value is recorded as 5 fold and the “drop in cellular ATP content” value amounted to 100 fold. The “effect on cell proliferation” value in the assay on HepG2 cells [5] (30 μM, after 72 h) is on record as “only very small effects”. Also, the “decrease in cell proliferation” value with HepG2 cells [5] (100 μM, after 72 h) was 30%. The “effect on cell proliferation” value in the assay with HepG2 cells [5] (300 μM) is listed as “completely prevented cell proliferation”. Further, in the assay with HepG2 cells [5] (1 mM), the “effect on cell proliferation” value is “completely prevented cell proliferation”. For the same molecule, in assay [6], the “activation of AMPK complexes containing the R531G mutant” value is “not activated”. The “potency of AMPK activation compared with medium containing serum” value in the assay on AMPK [7] was “much more potent”. Further, the “concentration at which AMPK was activated” value with AMPK [8] is no less than 1 µM.
